Experimental data published in patent US9776990B2, “Isoindolone derivatives” (AbbVie Inc., priority 2012, dated 2017).
Where two headings read alike, the source gives them in different places.

What was measured:
[1] = test system: breast cancer cell line MX-1; assay: MX-1 cell line proliferation assay (3-day, Cell Titer Glo); type: cell-based, human; conditions: 72 hours, read-out: Cellular proliferation: EC50
Method: The impact of compounds of the Examples on cancer cell proliferation was determined using the breast cancer cell line MX-1 (ATCC) in a 3-day proliferation assay. MX-1 cells were maintained in RPMI supplemented with 10% FBS at 37 C.° and an atmosphere of 5% CO2. For compound testing, MX-1 cells were plated in 96-well black bottom plates at a density of 5000 cells/well in 90 μl of culture media and incubated at 37° overnight to allow cell adhesion and spreading. Compound dilution series were prepared in DMSO via a 3-fold serial dilution from 3 mM to 0.1 μM. The DMSO dilution series were then diluted 1:100 in phosphate buffered saline, and 10 μL of the resulted solution were added to the appropriate wells of the MX-1 cell plate. The final compound concentrations in the wells were 3, 1, 0.3, 0.1, 0.03, 0.01, 0.003, 0.001, 0.0003 and 0.0001 μM.
Luminescence readings from the Cell Titer Glo assay were normalized to the DMSO treated cells and analyzed using the GraphPad Prism software with sigmoidal curve fitting to obtain EC50s. The minimum significant ratio (MSR) was determined to evaluate assay reproducibility (Eastwood et al., (2006) J Biomol Screen, 11: 253-261).

BRD4 (BDII_E352-M457) = BRD4 (BDII_E352-M457) (Homo sapiens (Human), UniProt O60885); assay: TR-FRET bromodomain binding assay, BRD4 second bromodomain; conditions: His-tagged BD2, 30 nM Alexa647 probe
Method: (§1) A time-resolved fluorescence resonance energy transfer (TR-FRET) assay was used to determine the affinities of compounds of the Examples listed in Table 1 for each bromodomain of BRD4. His-tagged first (BD1: amino acids K57-E168) and second (BD2: amino acids E352-E168) bromodomains of BRD4 were expressed and purified. An Alexa647-labeled BET-inhibitor was used as the fluorescent probe in the assay.
(§2) Compound dilution series were prepared in DMSO via a 3-fold serial dilution from 2.5 mM to 42 nM. Compounds were then diluted 6:100 in assay buffer (20 mM Sodium Phosphate, pH 6.0, 50 mM NaCl, 1 mM EDTA, 0.01% Triton X-100, 1 mM DTT) to yield 3× working solutions. Six microliters (μL) of the working solution was then transferred to white, low-volume assay plates (Costar #3673). A 1.5× assay mixture containing His-tagged bromodomain, Europium-conjugated anti-His antibody (Invitrogen PV5596) and the Alexa-647-conjugated probe molecule was also prepared. Twelve μL of this solution were added to the assay plate to reach a final volume of 18 μL. The final concentration of 1× assay buffer contains 2% DMSO, 50 μM−0.85 nM compound, 8 nM bromodomain, 1 nM antibody and 100 or 30 nM probe (for BDI or BDII, respectively). After a one-hour incubation at room temperature, TR-FRET ratios were determined using an Envision multilabel plate reader (Ex 340, Em 495/520).
(§3) TR-FRET data were normalized to the means of 24 no-compound controls (“high”) and 8 controls containing 1 μM un-labeled probe (“low”). Percent inhibition was plotted as a function of compound concentration and the data were fit with the 4 parameter logistic equation to obtain IC50s Inhibition constants (Ki) were calculated from the IC50s, probe Kd and probe concentration. Typical Z′ values were between 0.65 and 0.75. The minimum significant ratio was determined to evaluate assay reproducibility (Eastwood et al., (2006) J Biomol Screen, 11: 253-261). The MSR was determined to be 2.03 for BDI and 1.93 for BDII, and a moving MSR (last six run MSR overtime) for both BDI and BDII was typically <3.

BRD4 (BDI_K57-E168) = BRD4 (BDI_K57-E168) (Homo sapiens (Human), UniProt O60885); assay: TR-FRET bromodomain binding assay, BRD4 first bromodomain; conditions: His-tagged BD1, 100 nM Alexa647 probe
Method: as §1, §2, §3

Row | SMILES | EC50 ([1]; Homo sapiens, MX1, MX-1 cells) | Ki (BRD4 (BDII_E352-M457)) | Ki (BRD4 (BDI_K57-E168)) | EC50 ([1]; MX-1 cells)
1 | CCS(=O)(=O)Nc1ccc(OC2CCC(F)(F)CC2)c(-c2[nH]c(C)c3c2CCCC3=O)c1 [Example 52, N-{4-[(4,4-difluorocyclohexyl)oxy]-3-(3-methyl-4-oxo-4,5,6,7-tetrahydro-2H-isoindol-1-yl)phenyl}ethanesulfonamide] | 184 nM | 88 nM | 9 nM | 
2 | Cc1[nH]c(-c2ccccc2)c2c1C(=O)CCC2 [Example 1, 3-methyl-1-phenyl-2,5,6,7-tetrahydro-4H-isoindol-4-one] | 3400 nM | 3070 nM | 3680 nM | 
3 | Cc1[nH]c(-c2ccccc2OCCN2CCOCC2)c2c1C(=O)CCC2 [Example 33, 3-methyl-1-{2-[2-(morpholin-4-yl)ethoxy]phenyl}-2,5,6,7-tetrahydro-4H-isoindol-4-one] | > 3000 nM | 8160 nM | 1040 nM | 
4 | Cc1[nH]c(-c2cccc3[nH]ccc23)c2c1C(=O)CCC2 [Example 10, 1-(1H-indol-4-yl)-3-methyl-2,5,6,7-tetrahydro-4H-isoindol-4-one] | 1230 nM | 4060 nM | 1790 nM | 
5 | Cc1[nH]c(-c2ccccc2OCC2CCCO2)c2c1C(=O)CCC2 (centres unmarked) [Example 31, 3-methyl-1-[2-(tetrahydrofuran-2-ylmethoxy)phenyl]-2,5,6,7-tetrahydro-4H-isoindol-4-one] | > 3000 nM | 4680 nM | 765 nM | 
6 | COc1cc(-c2[nH]c(C)c3c2CCCC3=O)cc(OC)c1OC [Example 7, 3-methyl-1-(3,4,5-trimethoxyphenyl)-2,5,6,7-tetrahydro-4H-isoindol-4-one] | 676 nM | 805 nM | 261 nM | 
7 | Cc1[nH]c(-c2ccccc2OCC2CCOC2)c2c1C(=O)CCC2 (centres unmarked) [Example 29, 3-methyl-1-[2-(tetrahydrofuran-3-ylmethoxy)phenyl]-2,5,6,7-tetrahydro-4H-isoindol-4-one] | > 3000 nM | 2920 nM | 315 nM | 
8 | Cc1[nH]c(-c2cccc(NS(C)(=O)=O)c2)c2c1C(=O)CC(C)(C)C2 [Example 64, N-[3-(3,6,6-trimethyl-4-oxo-4,5,6,7-tetrahydro-2H-isoindol-1-yl)phenyl]methanesulfonamide] | > 3000 nM | 409 nM | 576 nM | 
9 | Cc1[nH]c(-c2cc(NS(=O)(=O)CC(F)(F)F)ccc2Oc2ccc(F)cc2F)c2c1C(=O)CCC2 [Example 48, N-[4-(2,4-difluorophenoxy)-3-(3-methyl-4-oxo-4,5,6,7-tetrahydro-2H-isoindol-1-yl)phenyl]-2,2,2-trifluoromethanesulfonamide] |  | 43 nM | 68 nM | 564 nM
10 | Cc1[nH]c(-c2cccc(C(N)=O)c2)c2c1C(=O)CCC2 [Example 9, 3-(3-methyl-4-oxo-4,5,6,7-tetrahydro-2H-isoindol-1-yl)benzamide] | 2750 nM | 3100 nM | 961 nM | 
11 | Cc1[nH]c(-c2ccccc2OCC2CCOCC2)c2c1C(=O)CCC2 [Example 32, 3-methyl-1-[2-(tetrahydro-2H-pyran-4-ylmethoxy)phenyl]-2,5,6,7-tetrahydro-4H-isoindol-4-one] | 1880 nM | 1940 nM | 202 nM | 
12 | Cc1[nH]c(-c2ccccc2Oc2ccccc2)c2c1C(=O)CC(C(C)C)C2 (centres unmarked) [Example 70, 3-methyl-1-(2-phenoxyphenyl)-6-(propan-2-yl)-2,5,6,7-tetrahydro-4H-isoindol-4-one] |  | 2220 nM | 1200 nM | 
13 | Cc1[nH]c(-c2ccccc2Cl)c2c1C(=O)CCC2 [Example 15, 1-(2-chlorophenyl)-3-methyl-2,5,6,7-tetrahydro-4H-isoindol-4-one] |  | 22200 nM | 1140 nM | 

The remaining lines, values ahead:

Row | EC50 ([1]; Homo sapiens, MX1, MX-1 cells) | Ki (BRD4 (BDII_E352-M457)) | Ki (BRD4 (BDI_K57-E168)) | EC50 ([1]; MX-1 cells) | SMILES
14 | 110 nM | 68 nM | 12 nM |  | Cc1[nH]c(-c2cc(NS(C)(=O)=O)ccc2Oc2ccccc2)c2c1C(=O)CC(C)C2 (centres unmarked) [Example 67, N-[3-(3,6-dimethyl-4-oxo-4,5,6,7-tetrahydro-2H-isoindol-1-yl)-4-phenoxyphenyl]methanesulfonamide]
15 | 3180 nM |  |  |  | Cc1[nH]c(-c2cccc3ccccc23)c2c1C(=O)CCC2 [Example 19, 3-methyl-1-(naphthalen-1-yl)-2,5,6,7-tetrahydro-4H-isoindol-4-one]
16 | > 3000 nM | 568 nM | 1820 nM |  | Cc1[nH]c(-c2cc(N)ccc2Sc2ccccc2)c2c1C(=O)CCC2 [Example 43, 1-[5-amino-2-(phenylsulfanyl)phenyl]-3-methyl-2,5,6,7-tetrahydro-4H-isoindol-4-one]
17 | 1390 nM | 511 nM | 77 nM |  | CCNC(=O)c1ccc(Oc2ccccc2)c(-c2[nH]c(C)c3c2CCCC3=O)c1 [Example 55, N-ethyl-3-(3-methyl-4-oxo-4,5,6,7-tetrahydro-2H-isoindol-1-yl)-4-phenoxybenzamide]
18 | > 3000 nM | 1090 nM | 569 nM |  | CC(=O)Nc1ccc(Oc2ccccc2)c(-c2c3c(c(C)n2C)C(=O)CCC3)c1 [Example 42, N-[3-(2,3-dimethyl-4-oxo-4,5,6,7-tetrahydro-2H-isoindol-1-yl)-4-phenoxyphenyl]acetamide]
19 | 950 nM | 926 nM | 375 nM |  | Cc1[nH]c(-c2cc(NS(C)(=O)=O)ccc2Oc2ccccc2)c2c1C(=O)CC(C(C)C)C2 (centres unmarked) [Example 71, N-{3-[3-methyl-4-oxo-6-(propan-2-yl)-4,5,6,7-tetrahydro-2H-isoindol-1-yl]-4-phenoxyphenyl}methanesulfonamide]
20 | > 3000 nM | 2620 nM | 1350 nM |  | Cc1[nH]c(-c2ccccc2OCc2ccccn2)c2c1C(=O)CCC2 [Example 34, 3-methyl-1-[2-(pyridin-2-ylmethoxy)phenyl]-2,5,6,7-tetrahydro-4H-isoindol-4-one]
21 | > 3000 nM | 4140 nM | 526 nM |  | Cc1[nH]c(-c2ccccc2OCc2cccnc2)c2c1C(=O)CCC2 [Example 37, 3-methyl-1-[2-(pyridin-3-ylmethoxy)phenyl]-2,5,6,7-tetrahydro-4H-isoindol-4-one]
22 | 370 nM | 216 nM | 161 nM |  | Cc1c2c(c(-c3cc(NS(C)(=O)=O)ccc3Oc3ccccc3)n1C)CCCC2=O [Example 41, N-[3-(2,3-dimethyl-4-oxo-4,5,6,7-tetrahydro-2H-isoindol-1-yl)-4-phenoxyphenyl]methanesulfonamide]
23 | 734 nM | 653 nM | 68 nM |  | Cc1[nH]c(-c2cc(C(=O)NCC3CCCO3)ccc2Oc2ccccc2)c2c1C(=O)CCC2 (centres unmarked) [Example 56, 3-(3-methyl-4-oxo-4,5,6,7-tetrahydro-2H-isoindol-1-yl)-4-phenoxy-N-(tetrahydrofuran-2-ylmethyl)benzamide]
24 | 1230 nM | 2030 nM | 943 nM |  | Cc1[nH]c(-c2ccccc2OCc2ccccc2)c2c1C(=O)CCC2 [Example 18, 1-[2-(benzyloxy)phenyl]-3-methyl-2,5,6,7-tetrahydro-4H-isoindol-4-one]
25 |  | 504 nM | 255 nM |  | Cc1[nH]c(-c2ccccc2Oc2ccccc2)c2c1C(=O)CCC2 [Example 2, 3-methyl-1-(2-phenoxyphenyl)-2,5,6,7-tetrahydro-4H-isoindol-4-one]
26 |  | 1030 nM | 786 nM |  | Cc1[nH]c(-c2ccccc2Oc2ccccc2)c2c1C(=O)CC(C)(C)C2 [Example 63, 3,6,6-trimethyl-1-(2-phenoxyphenyl)-2,5,6,7-tetrahydro-4H-isoindol-4-one]
27 |  | 289 nM | 45 nM |  | Cc1[nH]c(-c2cc(C(=O)O)ccc2Oc2ccccc2)c2c1C(=O)CCC2 [Example 54, 3-(3-methyl-4-oxo-4,5,6,7-tetrahydro-2H-isoindol-1-yl)-4-phenoxybenzoic Acid]
